Data published in patent US20050005311A1, “High throughput screening for cancer genes” (priority 2003, published 2005).

System: l(2)gl primary tumor
Assay type: in vivo, Drosophila melanogaster
Method: Adult hosts injected with l(2)gl/l(2)gl larval tissue were orally administered drugs for 21 days after injection. Hosts were treated with 0 or 0.56 μg/ml of LY294002 (reduction of tumor size to 7% of untreated) and 0 or […] PD98059 (no effect).
Brain lobes from armadillo-lacZ marked larvae; were dissected and cut into halves. Each fragment was injected into the abdomen of a βgal^ml (a mutant that lacks endogenous […] expression) adult female using a 33 gauge needle, where it was cultured for 21 days at room temperature. Hosts that had received transplants were opened along the ventral midline and fixed in 3.7% formaldehyde in phosphate buffered saline (PBS). β-galactosidase in the donor tissue was detected by staining overnight at 37° C. in 0.02% X-gal in 10 mM Na pyrophosphate, 0.15 M NaCl, […], 5 mM ferricyanide, and 5 mM K ferrocyanide (Specialty Media). Secondary tumors were defined as β-galactosidase-marked cells distinct from the :implanted tumor, which was defined as the primary tumor.
The levels of Mothers against dpp (Mad), P13K, ERK, Akt, and cleaved caspase 3 were studied in brain extracts from l(2)gl/l(2)gl, l(2)gl/l(2)gl; sema-5c/sema-5c, and wild-type larvae. P13K was reduced in l(2)gl/l(2)gl;sema-5c/sema-5c compared to l(2)gl/l(2)gl. To further study the role of P13K in l(2)gl tumors, the P13K inhibitor, LY294002, was orally administered to Drosophila adults injected with l(2)gl/l(2)gl tissue.
Adult βgal^nl hosts transplanted with armadillo-lacZ marked l(2)gl brain fragments were treated with 0; 0.556; 5.56; and 55.6 μg/ml of the PI-3 K inhibitor, LY294002 (Sigma), by adding drug to fly media. Flies were cultured for 21 days on drug-containing food and stained for the presence of β-galactosidase. Primary tumor size was determined by counting the cells dissociated from tumors. See, e.g., FIG. 5.

| SMILES | primary tumor size (% of untreated) (adult hosts injected with l(2)gl/l(2)gl larval tissue, oral, 0.56 μg/ml, 21 days after injection (FIG. 5)) | adverse effects to the hosts (in vivo, po) | primary tumor size (orally administered to Drosophila adults injected with l(2)gl/l(2)gl tissue, dose not given) | effect on l(2)gl primary tumor growth (adult hosts injected with l(2)gl/l(2)gl larval tissue, oral, 0.56 μ/ml, 21 days after injection (FIG. 5)) |
| --- | --- | --- | --- | --- |
| O=c1cc(N2CCOCC2)oc2c(-c3ccccc3)cccc12 [LY294002] | 7 % of untreated | without adverse effects | 7 % of untreated hosts | – |
| COc1cccc(-c2cc(=O)c3ccccc3o2)c1N [PD98059] | – | – | – | no effect |
